We go through 10 compounds from patent publication US11912705B2, “Cathinone derivatives, pharmaceutical formulations, and methods” (The Corporation of Mercer University, priority 2020, dated 2024).

Series [1] addresses T1, human M2R (Homo sapiens, UniProt P08172).
T1 construct: host or cells: HEK293 (CRL-1573, ATCC), transient
T1 sequence (P08172 1-466): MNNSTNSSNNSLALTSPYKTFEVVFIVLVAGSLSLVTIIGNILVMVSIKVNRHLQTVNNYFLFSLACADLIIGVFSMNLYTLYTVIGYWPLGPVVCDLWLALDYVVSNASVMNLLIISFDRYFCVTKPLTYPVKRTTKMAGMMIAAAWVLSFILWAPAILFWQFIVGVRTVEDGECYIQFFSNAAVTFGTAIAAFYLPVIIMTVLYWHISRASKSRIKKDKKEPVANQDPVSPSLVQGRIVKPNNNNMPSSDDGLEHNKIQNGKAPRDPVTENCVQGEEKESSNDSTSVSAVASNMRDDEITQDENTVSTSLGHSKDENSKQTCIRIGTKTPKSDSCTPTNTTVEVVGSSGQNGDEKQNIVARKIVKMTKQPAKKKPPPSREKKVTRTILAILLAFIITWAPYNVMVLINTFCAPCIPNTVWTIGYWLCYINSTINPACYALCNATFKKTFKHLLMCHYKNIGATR
Nature of the series: [3H]Scopolamine radioligand competition binding at M2R. On the procedure:
(§1) Radioligand Competition Binding: Radioligand competition binding assays were conducted using membranes collected from transiently transfected HEK293 cells (P<20 from a procured stock, CRL-1573, ATCC, Manassas, Va., USA) as previously described (Chen, Y., et al. Drug Test Anal 11, 990-998). Briefly, cells ˜90% confluent in 10 cm plates were transfected with 5 μg human M1R, M2R, M3R, M4R or […] cDNA (cDNA resource center, Bloomsburg, Pa., USA) using a lipid-based method (LipoD293 reagent, SignaGen Laboratories, Rockville, Md., USA). Membranes were collected by centrifugation about 48 hours later and stored at −80° C. until used. […] After a 90-minute incubation at room temperature on a shaker, contents from the plates were rapidly filtered through GF/B fiberglass filter mats, pre-soaked with ice cold 50 mM Tris buffer (pH 7.4), using a Microbeta Filtermat-96 cell harvester (Perkin Elmer, Waltham, Mass., USA). Approximately 200 mL of ice cold, 50 mM Tris buffer was then vacuumed through filter mats to wash away unbound radioligand. Filter mats were dried on a hot plate and soaked in Betaplate (Perkin Elmer, Waltham, Mass., USA) scintillation fluid in plastic bags. Bags were sealed and placed in cassettes. Radioactivity was measured in a Microbeta2 Microplate Counter (Perkin Elmer, Waltham, Mass., USA), and counts per minute corresponding to each well on the plates were recorded. For full dose-response competition binding assays, increasing half-log unit concentrations of five unsubstituted PSCs were tested at M2Rs and M1Rs, with the same procedures described above.
(§2) Curve Fitting and Statistical Analyses: All data were analyzed by GraphPad 8.3.0 (San Diego, Calif., USA). Ki values were determined from data fit to both one- and two-site models. […] EC50 and IC50 values from functional assays were determined from data fit to the log(agonist) vs. response (three parameters) or log(inhibitor) vs. response (three parameters) model, respectively. Kb values were calculated from IC50 values using the Cheng-Prusoff equation with modification (see, e.g., Leff, P., and Dougall, I. G. (1993) Trends Pharmacol Sci 14, 110-112): Kb=IC50/((2+([A]/[A50])nH)1/nH−1)
For orientation: Displacement assays read how much labelled ligand stays bound in the presence of the test substance.

Series [2] deals with T2, human M5R (Homo sapiens, UniProt P08912).
T2 construct: host or cells: HEK293 (CRL-1573, ATCC), transient
T2 sequence (P08912 1-532): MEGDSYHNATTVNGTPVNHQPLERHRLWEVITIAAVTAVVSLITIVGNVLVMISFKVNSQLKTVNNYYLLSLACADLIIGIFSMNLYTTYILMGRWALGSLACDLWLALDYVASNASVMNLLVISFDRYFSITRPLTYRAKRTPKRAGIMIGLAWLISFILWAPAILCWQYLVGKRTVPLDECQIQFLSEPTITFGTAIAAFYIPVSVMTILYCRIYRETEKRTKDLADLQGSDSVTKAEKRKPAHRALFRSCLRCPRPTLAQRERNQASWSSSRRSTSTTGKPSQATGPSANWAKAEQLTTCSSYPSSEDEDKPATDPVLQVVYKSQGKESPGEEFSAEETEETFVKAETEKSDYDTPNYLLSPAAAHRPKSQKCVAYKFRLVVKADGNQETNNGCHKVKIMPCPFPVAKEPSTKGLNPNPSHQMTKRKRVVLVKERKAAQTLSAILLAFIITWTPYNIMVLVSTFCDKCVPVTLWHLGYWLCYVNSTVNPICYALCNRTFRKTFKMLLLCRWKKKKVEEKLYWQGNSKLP
The series can be described thus: [3H]Scopolamine radioligand competition binding at M5R. On the procedure: as §1, §2

The target in series [3] is T3, human M3R (Homo sapiens, UniProt P20309).
T3 construct: host or cells: HEK293 (CRL-1573, ATCC), transient
The series can be described thus: biochemical. Conditions: estimate from 1 and 10 μM concentrations (N = 2); N.C. = <5% displacement of radioligand at 10 μM; read-out: estimated pKi at M3R (converted). The class given is binding. Here is the method: as §1, §2

Series [4] concerns the target T4, human M4R (Homo sapiens, UniProt P08173).
T4 construct: host or cells: HEK293 (CRL-1573, ATCC), transient
T4 sequence (P08173 1-479): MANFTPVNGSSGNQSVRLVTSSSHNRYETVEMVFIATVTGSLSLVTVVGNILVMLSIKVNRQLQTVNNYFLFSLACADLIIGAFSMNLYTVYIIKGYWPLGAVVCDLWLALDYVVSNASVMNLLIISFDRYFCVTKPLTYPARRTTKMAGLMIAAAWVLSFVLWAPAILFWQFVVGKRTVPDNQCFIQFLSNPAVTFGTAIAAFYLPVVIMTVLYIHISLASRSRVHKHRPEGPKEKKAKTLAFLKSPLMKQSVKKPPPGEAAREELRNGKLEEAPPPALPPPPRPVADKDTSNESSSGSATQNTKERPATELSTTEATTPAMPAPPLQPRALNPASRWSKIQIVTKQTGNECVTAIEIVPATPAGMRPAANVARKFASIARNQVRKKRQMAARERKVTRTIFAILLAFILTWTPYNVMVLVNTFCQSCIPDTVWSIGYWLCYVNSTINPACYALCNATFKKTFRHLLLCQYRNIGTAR
The series can be described thus: [3H]Scopolamine radioligand competition binding at M4R. On the procedure: as §1, §2

Series [5] addresses T5, human M1R (Homo sapiens, UniProt P11229).
T5 construct: host or cells: HEK293 (CRL-1573, ATCC), transient
T5 sequence (P11229 1-460): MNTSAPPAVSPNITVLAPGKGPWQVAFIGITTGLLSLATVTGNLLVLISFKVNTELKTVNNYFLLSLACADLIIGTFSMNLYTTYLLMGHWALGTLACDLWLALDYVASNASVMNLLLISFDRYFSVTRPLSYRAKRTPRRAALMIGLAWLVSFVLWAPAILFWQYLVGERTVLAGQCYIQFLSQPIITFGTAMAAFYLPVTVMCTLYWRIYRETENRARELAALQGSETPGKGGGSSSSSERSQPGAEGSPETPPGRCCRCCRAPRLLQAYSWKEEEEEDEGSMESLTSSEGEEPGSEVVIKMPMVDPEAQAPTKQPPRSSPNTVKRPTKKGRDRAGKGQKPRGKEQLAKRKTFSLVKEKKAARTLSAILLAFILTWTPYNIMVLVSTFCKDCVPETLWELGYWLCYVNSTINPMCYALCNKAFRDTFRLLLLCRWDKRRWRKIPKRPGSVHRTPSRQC
Nature of the series: biochemical. The class given is binding. On the procedure:
as §1, §2

For series [6], the system named is mitochondrial activity and cellular membranes. Conditions: reported by Wojcieszak et al.; cited from earlier work.
In series [7] the target is T6, human M1Rs (Homo sapiens, UniProt P11229).
T6 construct: host or cells: HEK293 (CRL-1573, ATCC), transient
T6 sequence (P11229 1-460): T5 sequence (P11229 1-460)
The series can be described thus: M1R phosphoinositide hydrolysis (IP-One HTRF). The class given is cell-based. (Time-resolved FRET reads energy transfer from a long-lived donor to a nearby acceptor.)

Series [8] deals with T7, M2Rs (Homo sapiens, UniProt P08172).
T7 sequence (P08172 1-466): T1 sequence (P08172 1-466)
The series can be described thus: M2R β-arrestin recruitment. Type of series: cell-based. The text has this: Data are shown as normalized means (±SEM) of two, independent determinations, with oxotremorine tested at each concentration in duplicate and α-PHP tested in quadruplicate. [*Basal signaling is defined as the normalized RLU emitted by untreated cells.]
In general terms: Arrestin recruitment assays detect the binding of arrestin to an activated receptor.

Series [9] deals with T1, human M2R. Nature of the series: M2R cAMP signaling (forskolin-stimulated cAMP, oxotremorine agonist). The class given is cell-based. Here is the method:
The M2R coupled to Gαi/o proteins, and its agonism functioned to decrease formation of the intracellular second messenger cyclic-adenosine-monophosphate (cAMP). […] In the presence of oxotremorine, an antagonist of the M2R would be expected to reverse the effects of the agonist, thereby increasing cAMP formation.
M2R cAMP Signaling: cAMP measurements were performed with the cAMP Hunter eXpress® CHRM2 CHO-K1 GPCR assay (Eurofins DiscoveRx, Fremont, Calif., USA) according to the manufacturer's protocol. Briefly, in the provided 96-well tissue culture-treated plate, 100 μL of human M2R expressing CHO-K1 cells were seeded in cell plating reagent and incubated (37° C., 5% CO2, 95% humidity) overnight. Cell plating reagent was replaced with 30 μL of cell assay buffer the next day. For agonist stimulation, cells were treated with increasing half-log unit concentrations of oxotremorine in the presence of 10 μM forskolin, followed by incubation for 30 minutes. A cAMP antibody, cAMP working detection solution and enzyme acceptor solution were then added according to the protocol, and the final chemiluminescent signals were detected by a Mithras LB 940 microplate reader (Berthold Technologies, Bad Wildbad, Germany). Antagonist tests were run by pretreating cells with increasing half-log unit concentrations of α-PHP, followed by incubation for one hour. Cells were then treated with EC80 concentration of oxotremorine (130 nM) and 10 μM forskolin. The same incubation and detection procedure used for agonist assays was used for the remaining steps.
as §2

The mark [10] stands for this setting: estimated pKi at M2R, estimate from 1 and 10 μM concentrations (N = 2), N.C. = <5% displacement of radioligand at 10 μM.
The mark [11] stands for this setting: estimate from 1 and 10 μM concentrations (N = 2), N.C. = <5% displacement of radioligand at 10 μM, read-out: estimated pKi at M1R (converted).
[12] abbreviates: pKi at M2R, full dose-response [3H]Scopolamine competition binding, α-PPP and α-PBP interpolated.
Setting [13] is: full dose-response [3H]Scopolamine competition binding, α-PPP and α-PBP interpolated, read-out: pKi at M1R (converted).

SMILES strings stand for the structures. Like-named read-outs stand apart in the source and are kept apart here.

T3 sequence (P20309 whole entry): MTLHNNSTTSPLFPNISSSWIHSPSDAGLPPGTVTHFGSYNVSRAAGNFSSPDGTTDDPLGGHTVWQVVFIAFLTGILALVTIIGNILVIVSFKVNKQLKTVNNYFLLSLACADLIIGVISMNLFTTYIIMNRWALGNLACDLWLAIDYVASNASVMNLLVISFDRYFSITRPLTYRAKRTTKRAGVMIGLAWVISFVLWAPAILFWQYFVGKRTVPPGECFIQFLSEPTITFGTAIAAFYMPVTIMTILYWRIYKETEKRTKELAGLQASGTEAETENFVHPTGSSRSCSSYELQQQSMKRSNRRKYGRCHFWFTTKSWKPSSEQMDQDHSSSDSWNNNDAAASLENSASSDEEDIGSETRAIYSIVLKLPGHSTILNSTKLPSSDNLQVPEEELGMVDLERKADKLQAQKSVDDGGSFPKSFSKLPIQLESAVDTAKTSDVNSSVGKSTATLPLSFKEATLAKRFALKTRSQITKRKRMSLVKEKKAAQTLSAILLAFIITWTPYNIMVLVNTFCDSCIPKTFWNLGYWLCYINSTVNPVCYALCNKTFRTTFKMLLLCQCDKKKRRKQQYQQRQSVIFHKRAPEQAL

With `CCC(C(=O)c1ccc2c(c1)OCO2)N1CCCC1` (stereo not drawn) [MDPBP, 3,4-Methylenedioxy-α-pyrrolidinobutiophenone], the Ki was 12.6 µM in series [1] (setting [10]), 18.2 µM in [2], 14.5 µM in series [3] and 10.2 µM in series [4].
As to `CCCCC(C(=O)c1ccc2c(c1)OCO2)N1CCCC1` (stereo not drawn) [MDPHP, 3,4-Methylenedioxy-α-pyrrolidinohexiophenone], the Ki was 5.01 µM in [1] (setting [10]); 7.94 µM in [2]; 25.7 µM in [3]; 3.63 µM in [5] (estimate from 1 and 10 μM screens, read-out: estimated Ki at M1Rs); 12.9 µM in series [4].
`CCCCCC(C(=O)c1ccc2c(c1)OCO2)N1CCCC1` (stereo not drawn) [MDPHPP, 3,4-Methylenedioxy-α-pyrrolidinoheptaphenone]: the Ki was 12 µM in [1] (setting [10]); 5.62 µM in [2]; 36.3 µM in [3]; 6.03 µM in series [5] (setting [11]); 33.1 µM in series [4].
Consider `CCCC(C(=O)c1ccc2c(c1)OCO2)N1CCCC1` (stereo not drawn) [MDPV, 3,4-Methylenedioxypyrovalerone], for which the Ki in series [1] (setting [10]) was 13.8 µM; in [2], 6.31 µM; in series [3] it was 70.8 µM; in series [5] (setting [11]), 8.71 µM; in [4], 8.91 µM. Moreover, the “cytotoxicity (mitochondrial activity, cellular membrane damage)” value (“cytotoxicity” below) in series [6] was “this effect was not observed”.
For `CNC(C)C(=O)c1ccccc1` (stereo not drawn) [methcathinone], the “cytotoxicity” value in series [6] is on record as “these toxic effects were not observed”.
One may read the EC50 as the concentration that produces a half-maximal response. Turning to `O=C1CCCN1CC#CCN1CCCC1` [oxotremorine, Oxotremorine], in series [1] (two-site model), the “pKi High at M2R” value was 7.92±0.40 and the “pKi Low at M2R” value is reported as 6.15±0.10. Moreover, in series [7], the “EC80, IP1 production” value came out at 0.5 µM and the “pEC, IP1 production” value stood at 7.21±0.20. In addition, in series [5], the “pKi High at M1R” value stood at 7.62±0.36 and the “pKi Low at M1R” value is 5.41±0.04. In addition, the “pEC50, β-arrestin recruitment” value in series [8] is 5.71±0.11. In addition, the “pEC50, decrease of forskolin-stimulated cAMP production” value in [9] (10 μM forskolin) was found to be 7.54±0.12. Also, the EC50 in series [9] (10 μM forskolin, read-out: EC50, decrease of forskolin-stimulated cAMP production) was determined as 0.029 µM. In series [9] (forskolin-stimulated), the “EC80, inhibition of cAMP formation” value was found to be 0.13 µM.
Regarding `CCC(C(=O)c1ccccc1)N1CCCC1` (stereo not drawn) [α-PBP, α-Pyrrolidinobutiophenone], the Ki was 39.8 µM in [1] (setting [12]) and 75.9 µM in [5] (setting [13]).
For the compound `CCCCCC(C(=O)c1ccccc1)N1CCCC1` (stereo not drawn) [α-PHPP, α-Pyrrolidinoheptaphenone], the Ki in [1] (setting [12]) is 0.661 µM; in series [2], 1.15 µM; in series [3], 1.12 µM; in series [5] (setting [13]), 1.95 µM; in series [4] it was 1.38 µM.
Regarding `CC(C(=O)c1ccccc1)N1CCCC1` (stereo not drawn) [α-PPP, α-Pyrrolidinopropiophenone], the Ki in [1] (Ki at M2Rs, full dose-response, interpolated) is 73 µM; in [1] (setting [12]), 75.9 µM; in series [5] (setting [13]), 195 µM.
Turning to `CCCCCCC(C(=O)c1ccccc1)N1CCCC1` (stereo not drawn) [α-PV9, α-Pyrrolidinooctanophenone], the “cytotoxicity” value in series [6] is “potently decreased mitochondrial activity, and severely damaged cellular membranes”.
